Reference: paper PMC5515057, “Protein sensing in living cells by molecular rotor-based fluorescence-switchable chemical probes” (Chemical Science, 2015)

How the values were obtained:
[1] = target: T1, O6-methylguanine-methyltransferase (MGMT) (Homo sapiens, UniProt P16455); assay: fluorescence turn-on kinetics with recombinant MGMT, SDS-PAGE in-gel fluorescence, Job's plot; also HeLa S3 lysate labeling; format: binding; conditions: read-out: fluorescence turn-on kinetics with recombinant MGMT, SDS-PAGE in-gel fluorescenc
T1 construct: recombinant MGMT, about 26 kDa
T1 sequence (P16455 1-207): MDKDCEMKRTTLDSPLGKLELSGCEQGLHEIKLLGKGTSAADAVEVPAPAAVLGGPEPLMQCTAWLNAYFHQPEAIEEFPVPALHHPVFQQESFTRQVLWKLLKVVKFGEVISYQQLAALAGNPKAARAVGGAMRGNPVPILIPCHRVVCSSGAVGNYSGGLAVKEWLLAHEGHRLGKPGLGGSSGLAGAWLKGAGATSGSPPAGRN

[2] = target: T2, human carbonic anhydrase II (hCAII) (Homo sapiens, UniProt P00918); assay: fluorescence turn-on titration with hCAII in PBS; displaced by ethoxzolamide; format: binding
T2 construct: gene CA2

kinact/KI [1] [M⁻¹ s⁻¹] | Kd [2] [nM] | SMILES
~715 |  | N#C/C(=C\c1cc2c3c(c1)CCCN3CCC2)C(=O)NCc1ccc(COc2nc(N)nc3[nH]cnc23)cc1 [BG-CCVJ]
 | ~70 | N#CC(=Cc1cc2c3c(c1)CCCN3CCC2)C(=O)NCc1ccc(S(N)(=O)=O)cc1 [SA-CCVJ]
